# Results reported in patent US20020169101A1, “Treatment of sexual dysfunction” (priority 1999, published 2002).
# Where two headings read alike, the source gives them in different places.
# Tests used:
# [1] = target: T1, human NMB receptor (BB1) (Homo sapiens, UniProt P28336); test: BB1 binding assay ([125I][Tyr4]bombesin displacement, CHO-K1 membranes)
# T1 construct: expressed in transfected cells; membranes prepared from the cells
# Outline: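 Membranes from CHO-K1 cells stably expressing human NMB (BB1) or GRP (BB2) receptors, in 50 mM Tris-HCl pH 7.4 with BSA and protease inhibitors, incubated with [125I][Tyr4]bombesin (<0.1 nM) for 60 min (BB1) or 90 min (BB2). Nonspecific binding defined with 1 μM bombesin; filtration and gamma counting; IC50 converted to Ki by Cheng-Prusoff.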
# [2] = target: T2, human GRP receptor (BB2) (Homo sapiens, UniProt P30550); test: BB2 binding assay ([125I][Tyr4]bombesin displacement, CHO-K1 membranes)
# T2 construct: expressed in transfected cells; membranes prepared from the cells
# Procedure: In the following experiments, measurement of BB1 and BB2 binding was as follows. CHO-K1 cells stably expressing cloned human NMB (for (BB1 assay) and GRP receptors (for BB2 assay) were routinely grown in Ham's F12 culture medium supplemented with 10% foetal calf serum and 2 mM glutamine. For binding experiments, cells were harvested by trypsinization, and stored frozen at −70° C. in Ham's F12 culture medium containing 5% DMSO until required. On the day of use, cells were thawed rapidly, diluted with an excess of culture medium, and centrifuged for 5 minutes at 2000 g. Cells were resuspended in 50 mM Tris-HCl assay buffer (pH 7.4 at 21° C., containing 0.02% BSA, 40 μg/mL bacitracin, 2 μg/mL chymostatin, 4 μg/mL leupeptin, and 2 μM phosphoramidon), counted, and polytronned (setting 5, 10 sec) before centrifuging for 10 minutes at 28,000 g. The final pellet was resuspended in assay buffer to a final cell concentration of 1.5×10^5/mL. For binding assays, […] aliquots of membranes were incubated with [^125I][Tyr^4]bombesin (<0.1 nM) in the presence and absence of test compounds (final assay volume 250 μL) for 60 minutes and 90 minutes for NMB and GRP receptors, respectively. Nonspecific binding was defined by 1 μM bombesin. Assays were terminated by rapid filtration under vacuum onto Whatman GF/C filters presoaked in 0.2% PEI for >2 hours, and washed 50 mM Tris-HCl (pH 6.9 at 21° C.; 6×1 mL). Radioactivity bound was determined using a gamma counter.
# All competition data was analysed using nonlinear regression utilizing iterative curve-plotting procedures in Prism® (GraphPad Software Inc., San Diego, USA). IC50 values were corrected to Ki values using the Cheng-Prusoff equation (Cheng Y., Prusoff W. H., Biochem. Pharmacol. 22: 3099-3108, 1973). obtained are listed in Table 1.
# [3] = Table 3, N-acyl derivatives of Intermediate III-7
# [4] = second 'TABLE 4', N-terminal urethane derivatives of Intermediate III-7
# T2 sequence (P30550 whole entry): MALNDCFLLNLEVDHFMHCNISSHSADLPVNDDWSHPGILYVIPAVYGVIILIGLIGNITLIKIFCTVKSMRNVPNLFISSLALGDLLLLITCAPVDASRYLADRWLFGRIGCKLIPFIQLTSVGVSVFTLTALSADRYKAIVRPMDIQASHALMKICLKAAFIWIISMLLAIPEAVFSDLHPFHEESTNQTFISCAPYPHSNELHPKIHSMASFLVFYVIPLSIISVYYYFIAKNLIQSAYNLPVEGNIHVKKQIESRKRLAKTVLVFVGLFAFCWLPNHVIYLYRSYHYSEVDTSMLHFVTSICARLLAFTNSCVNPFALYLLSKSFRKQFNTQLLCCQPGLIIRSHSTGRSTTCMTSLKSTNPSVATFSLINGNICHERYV
# T1 sequence (P28336 whole entry): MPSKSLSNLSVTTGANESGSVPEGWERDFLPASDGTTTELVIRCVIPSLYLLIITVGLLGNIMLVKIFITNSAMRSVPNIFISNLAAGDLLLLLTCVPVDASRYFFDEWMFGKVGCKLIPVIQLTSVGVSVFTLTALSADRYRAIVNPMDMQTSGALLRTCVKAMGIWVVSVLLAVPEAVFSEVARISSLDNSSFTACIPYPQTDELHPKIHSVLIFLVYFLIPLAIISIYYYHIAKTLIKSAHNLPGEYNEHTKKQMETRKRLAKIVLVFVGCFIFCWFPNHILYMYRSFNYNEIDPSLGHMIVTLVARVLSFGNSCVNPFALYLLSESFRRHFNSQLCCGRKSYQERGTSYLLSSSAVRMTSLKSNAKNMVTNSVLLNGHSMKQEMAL
"IC50 [1, 3]","IC50 [2, 3]",SMILES,other results
2860 nM,> 10000 nM,"COc1cccc(C(=O)N[C@@](C)(Cc2c[nH]c3ccccc23)C(=O)NCC2(c3ccccn3)CCCCC2)c1 [Example 40, N—{(S)-2-(1H-Indol-3-yl)-1-methyl-1-[(1-pyridin-2-yl-cyclohexylmethyl)-carbamoyl]-ethyl}-3-methoxy-benzamide]",–
2350 nM,> 10000 nM,"Cc1cccc(C(=O)N[C@@](C)(Cc2c[nH]c3ccccc23)C(=O)NCC2(c3ccccn3)CCCCC2)c1 [Example 43, N—{(S)-2-(1H-Indol-3-yl)-1-methyl-1-[(1-pyridin-2-yl-cyclohexylmethyl)-carbamoyl]-ethyl}-3-methyl-benzamide]",–
3280 nM,> 10000 nM,"Cc1ccccc1C(=O)N[C@@](C)(Cc1c[nH]c2ccccc12)C(=O)NCC1(c2ccccn2)CCCCC1 [Example 47, N—{(S)-2-(1H-Indol-3-yl)-1-methyl-1-[(1-pyridin-2-yl-cyclohexylmethyl)-carbamoyl]-ethyl}-2-methyl-benzamide]",–
2200 nM,> 10000 nM,"C[C@@](Cc1c[nH]c2ccccc12)(NC(=O)c1ccsc1)C(=O)NCC1(c2ccccn2)CCCCC1 [Example 65, Thiophene-3-carboxylic acid {(S)-2-(1H-indol-3-yl)-1-methyl-1-[(1-pyridin-2-yl-cyclohexylmethyl)-carbamoyl]-ethyl}-amide]",–

# More lines, now with the values behind:
SMILES,"IC50 [1, 3]","IC50 [2, 3]",other results
"Cc1ccc(Oc2ccccc2)c(S(=O)(=O)N[C@@](C)(Cc2c[nH]c3ccccc23)C(=O)NCC2(c3ccccn3)CCCCC2)c1 [Example 152, (S)-3-(1H-indol-3-yl)-2-methyl-2-(5-methyl-2-phenoxy-benzenesulfonylamino)-N-(1-pyridin-2-yl-cyclohexylmethyl)-propionamide]",–,–,IC50 [1]: 76 nM; IC50 [2]: > 10000 nM
"C[C@@](Cc1c[nH]c2ccccc12)(NC(=O)c1ccc2cc[nH]c2c1)C(=O)NCC1(c2ccccn2)CCCCC1 [Example 66, 1H-Indole-6-carboxylic acid {(S)-2-(1H-indol-3-yl)-1-methyl-1-[(1-pyridin-2-yl-cyclohexylmethyl)-carbamoyl]-ethyl}-amide]",1600 nM,> 10000 nM,–
"C[C@@](Cc1c[nH]c2ccccc12)(NC(=O)OCc1ccc([N+](=O)[O-])cc1)C(=O)NCC1(c2ccccn2)CCCCC1 [Example 96, {(S)-2-(1H-Indol-3-yl)-1-methyl-1-[(1-pyridin-2-yl-cyclohexylmethyl)-carbamoyl]-ethyl}-carbamic acid 4-nitro-benzyl ester]",–,–,"IC50 [1, 4]: 41 nM; IC50 [2, 4]: 463 nM"
C[C@@](Cc1c[nH]c2ccccc12)(NC(=O)c1ccncc1)C(=O)NCC1(c2ccccn2)CCCCC1 [Example 58],1360 nM,> 10000 nM,–
"C[C@@](Cc1c[nH]c2ccccc12)(NC(=O)c1ccc(S(C)(=O)=O)cc1)C(=O)NCC1(c2ccccn2)CCCCC1 [Example 37, N—{(S)-2-(1H-Indol-3-yl)-1-methyl-1-[(1-pyridin-2-yl-cyclohexylmethyl)-carbamoyl]-ethyl}-4-methanesulfonyl-benzamide]",2270 nM,> 10000 nM,–
"COc1ccc(COC(=O)N[C@@](C)(Cc2c[nH]c3ccccc23)C(=O)NCC2(c3ccccn3)CCCCC2)cc1 [Example 92, {(S)-2-(1H-Indol-3-yl)-1-methyl-1-[(1-pyridin-2-yl-cyclohexylmethyl)-carbamoyl]-ethyl}-carbamic acid 4-methoxy-benzyl ester]",–,–,"IC50 [1, 4]: 1610 nM; IC50 [2, 4]: > 10000 nM"
"COc1ccccc1COC(=O)N[C@@](C)(Cc1c[nH]c2ccccc12)C(=O)NCC1(c2ccccn2)CCCCC1 [Example 100, {(S)-2-(1H-Indol-3-yl)-1-methyl-1-[(1-pyridin-2-yl-cyclohexylmethyl)-carbamoyl]-ethyl}-carbamic acid 2-methoxy-benzyl ester]",–,–,"IC50 [1, 4]: 818 nM; IC50 [2, 4]: > 10000 nM"
COc1cccc(S(=O)(=O)N[C@@](C)(Cc2c[nH]c3ccccc23)C(=O)NCC2(c3ccccn3)CCCCC2)c1 [Example 145],–,–,IC50 [1]: 295 nM; IC50 [2]: 3690 nM
